Reference: paper PMC10847306, “The antibacterial activity and mechanism of a novel peptide MR-22 against multidrug-resistant Escherichia coli” (Frontiers in Cellular and Infection Microbiology, 2024)

Tests used:
[1] = system: E. coli ATCC 25922; test: microbe, parasite or virus in culture
Experimental: (§1) The MIC were determined by a micro dilution method in Mueller-Hinton broth (MHB) ([Cuenca-Estrella et al., 2010]). The final concentration of bacterial suspension in MHB were 1.0×10^6 CFU/mL. The final concentration of MR-22 ranged 1 ~ 256 μg/mL in 96 wells plate broth at 37°C for 16~18 h. Imipenem was employed as positive control, bacterial grown without treatment as negative control and MHB as blank control. MIC determination was performed by reading the OD600 nm. Take 100 μL samples in holes that have never seen bacterial growth and place them on the LB agar board. The concentration of MR-22 with no bacterial growth was defined as the MBC.

[2] = system: E. coli clinical strain E01; test: microbe, parasite or virus in culture
Experimental: (§2) The clinical strains used in this study were obtained from a tertiary healthcare facility located in Guiyang, a city situated within the Guizhou Province of China. The E. coli ATCC 25922 was obtained from the Key and Characteristic Laboratory of Modern Pathogen Biology at Guizhou Medical University in Guiyang, China. All strains were stored at –80°C in LB medium and routinely cultured at LB medium at 37°C.
as §1

[3] = system: E. coli clinical strain E02; test: microbe, parasite or virus in culture
Experimental: as §2, §1

[4] = system: E. coli clinical strain E03; test: microbe, parasite or virus in culture
Experimental: as §2, §1

[5] = system: E. coli clinical strain E04; test: microbe, parasite or virus in culture
Experimental: as §2, §1

[6] = system: E. coli clinical strain E05; test: microbe, parasite or virus in culture
Experimental: as §2, §1

[7] = system: E. coli clinical strain E06; test: microbe, parasite or virus in culture
Experimental: as §2, §1

[8] = system: E. coli clinical strain E07; test: microbe, parasite or virus in culture
Experimental: as §2, §1

[9] = system: E. coli clinical strain E08; test: microbe, parasite or virus in culture
Experimental: as §2, §1

[10] = system: E. coli clinical strain E09; test: microbe, parasite or virus in culture
Experimental: as §2, §1

[11] = system: E. coli clinical strain E10; test: microbe, parasite or virus in culture
Experimental: as §2, §1

[12] = system: E. coli clinical strain E11; test: microbe, parasite or virus in culture
Experimental: as §2, §1

[13] = system: E. coli clinical strain E12; test: microbe, parasite or virus in culture
Experimental: as §2, §1

[14] = system: E. coli clinical strain E13; test: microbe, parasite or virus in culture
Experimental: as §2, §1

[15] = system: E. coli clinical strain E14; test: microbe, parasite or virus in culture
Experimental: as §2, §1

[16] = system: E. coli clinical strain E15; test: microbe, parasite or virus in culture
Experimental: as §2, §1

[17] = system: E. coli clinical strain E16; test: microbe, parasite or virus in culture
Experimental: as §2, §1

[18] = system: E. coli clinical strain E17; test: microbe, parasite or virus in culture
Experimental: as §2, §1

[19] = system: E. coli clinical strain E18; test: microbe, parasite or virus in culture
Experimental: as §2, §1

[20] = system: E. coli clinical strain E19; test: microbe, parasite or virus in culture
Experimental: as §2, §1

[21] = system: E. coli clinical strain E20; test: microbe, parasite or virus in culture
Experimental: as §2, §1

[22] = system: E. coli clinical strain E21; test: microbe, parasite or virus in culture
Experimental: as §2, §1

[23] = system: E. coli clinical strain E22; test: microbe, parasite or virus in culture
Experimental: as §2, §1

[24] = system: E. coli ATCC 25922 and clinically drug resistant isolated strains; test: microbe, parasite or virus in culture; type: cell-based, Escherichia coli; settings: Escherichia coli; E. coli ATCC 25922 and 22 clinical isolates; microdilution, MHB; read-out: MIC over all strains tested
Experimental: as §1

[25] = system: E. coli E19; test: Mice peritonitis model; type: in vivo; settings: C57BL/6J mice, E19 peritonitis; 10 mg/kg 1 h after infection; after 36 h; ten mice per group; control group 8.73 ± 0.38
Experimental: This study utilized female C57BL/6J mice aged 6-8 weeks, weight range of 18-20 g, which were obtained from SPF Biotechnology Co., Ltd (Beijing, China). The animals were housed under maintained on a standard 12 h light/12 h dark cycle. All animal experiments were conducted in accordance with the Ethical Principles in Animal Research adopted by Guizhou Medical University and were approved by the Institutional Animal Care and Use Committee.
To evaluate the in vivo efficacy of MR-22, we used a mice peritonitis model. A total of 60 mice were divided into three groups: treatment group (10 mg/kg MR-22, intraperitoneal injection), positive control group (10 mg/kg imipenem, intraperitoneal injection), and normal control group (PBS, intraperitoneal injection). Peritonitis was induced by intraperitoneal injection of 1.0 × 10^8 CFU bacterial inoculum in 0.2 mL of E. coli E19. Survival rates were recorded every 12 h for 7 days.
To study the protective effects of MR-22, 10 mice in each group were sacrificed, and peritoneal lavage fluid, blood, liver, and kidney were collected 36 h after administration. The number of colonies in peritoneal lavage fluid and blood were determined by culturing on LB agar, while the tissues were fixed in 4% paraformaldehyde and subjected to hematoxylin and eosin staining to study the morphology.

## C[C@@H](O)[C@H]1C(=O)N2C(C(=O)O)=C(SCCN=CN)C[C@H]12 [IPM, imipenem]
[1]; E. coli ATCC 25922
  susceptibility category (S/I/R) given with the MIC: S
[1]; Escherichia coli, ATCC25922, 18 h
  MIC: ≤ 1 µg/mL
[2]; Escherichia coli, 18 h
  MIC: ≤ 1 µg/mL
[2]; strain E01
  susceptibility category (S/I/R) given with the MIC: S
[3]; Escherichia coli, 18 h
  MIC: ≤ 1 µg/mL
[3]; strain E02
  susceptibility category (S/I/R) given with the MIC: S
[4]; Escherichia coli, 18 h
  MIC: ≤ 1 µg/mL
[4]; strain E03
  susceptibility category (S/I/R) given with the MIC: S
[5]; Escherichia coli, 18 h
  MIC: ≤ 1 µg/mL
[5]; strain E04
  susceptibility category (S/I/R) given with the MIC: S
[6]; Escherichia coli, 18 h
  MIC: ≤ 1 µg/mL
[6]; strain E05
  susceptibility category (S/I/R) given with the MIC: S
[7]; Escherichia coli, 18 h
  MIC: ≤ 1 µg/mL
[7]; strain E06
  susceptibility category (S/I/R) given with the MIC: S
[8]; Escherichia coli, 18 h
  MIC: ≤ 1 µg/mL
[8]; strain E07
  susceptibility category (S/I/R) given with the MIC: S
[9]; Escherichia coli, 18 h
  MIC: ≤ 1 µg/mL
[9]; strain E08
  susceptibility category (S/I/R) given with the MIC: S
[10]; Escherichia coli, 18 h
  MIC: ≤ 1 µg/mL
[10]; strain E09
  susceptibility category (S/I/R) given with the MIC: S
[11]; Escherichia coli, 18 h
  MIC: ≤ 1 µg/mL
[11]; strain E10
  susceptibility category (S/I/R) given with the MIC: S
[12]; Escherichia coli, 18 h
  MIC: ≤ 1 µg/mL
[12]; strain E11
  susceptibility category (S/I/R) given with the MIC: S
[13]; Escherichia coli, 18 h
  MIC: ≤ 1 µg/mL
[13]; strain E12
  susceptibility category (S/I/R) given with the MIC: S
[14]; Escherichia coli, 18 h
  MIC: ≤ 1 µg/mL
[14]; strain E13
  susceptibility category (S/I/R) given with the MIC: S
[15]; Escherichia coli, 18 h
  MIC: ≤ 1 µg/mL
[15]; strain E14
  susceptibility category (S/I/R) given with the MIC: S
[16]; Escherichia coli, 18 h
  MIC: ≤ 1 µg/mL
[16]; strain E15
  susceptibility category (S/I/R) given with the MIC: S
[17]; Escherichia coli, 18 h
  MIC: ≤ 1 µg/mL
[17]; strain E16
  susceptibility category (S/I/R) given with the MIC: S
[18]; Escherichia coli, 18 h
  MIC: ≤ 1 µg/mL
[18]; strain E17
  susceptibility category (S/I/R) given with the MIC: S
[19]; Escherichia coli, 18 h
  MIC: ≤ 1 µg/mL
[19]; strain E18
  susceptibility category (S/I/R) given with the MIC: S
[20]; Escherichia coli, 18 h
  MIC: ≤ 1 µg/mL
[20]; strain E19
  susceptibility category (S/I/R) given with the MIC: S
[21]; Escherichia coli, 18 h
  MIC: ≤ 1 µg/mL
[21]; strain E20
  susceptibility category (S/I/R) given with the MIC: S
[22]; Escherichia coli, 18 h
  MIC: ≤ 1 µg/mL
[22]; strain E21
  susceptibility category (S/I/R) given with the MIC: S
[23]; Escherichia coli, 18 h
  MIC: ≤ 1 µg/mL
[23]; strain E22
  susceptibility category (S/I/R) given with the MIC: S
[24]
  MIC: ≤ 1 µg/mL
[25]
  bacterial content in the peritoneal lavage fluid: 4.20 ± 0.25 Log10CFU/mL
